“Also recorded” adds a separate entry of the source.
Tests used:
[1] = tested on: human liver cytochrome P450 isozymes (CYP 1A2, 2C9, 2C19, 2D6, 2E1, 3A4); conditions: 100 μM; 1A2, 2C9, 2C19, 2D6, 2E1, and 3A4 isozymes
Text: The effects of BPRCX807 on the activity of six specific human liver cytochrome P450 isozymes (CYP 1A2, 2C9, 2C19, 2D6, 2E1, 3A4) expressed in baculovirus-infected insect cell supersomes were studied. The reactions used to measure the activity of these enzymes

[2] = tested on: 65 other nonprimary targets (receptors and ion channels); assay: Off-target standard assays, remaining panel; format: binding; conditions: 10 µM
Text: Table: List of genes examined by real-time PCR and the primer sequences used.
Genes Forward primers Reverse primers […]
Vim 5’-[…]-3’ 5’-[…]-3’ […]
Zeb2 5’-[…]-3’ 5’-[…]-3’
Twist1 5’-[…]-3’ 5’-[…]-3’
Cdh1 5’-[…]-3’ 5’-[…]-3’
Mta3 5’-[…]-3’ 5’-[…]-3’ […]
Off-target standard assays
Methods employed in this study have been adapted from the scientific literature to […]
maximize reliability and reproducibility. Reference standards were run as an integral part of […]
each assay to ensure the validity of the results obtained. Radioligand binding Assays were […]
performed under conditions described in the accompanying "Methods" section of this report […]
by Eurofins Panlabs, Inc (Taipei, Taiwan, ROC).
BPRCX807 were tested in the hERG (hERG-CHO, automated patch-clamp) assay and determined at Eurofins Panlabs (Missouri, USA). The experiment was accepted in accordance with Eurofins validation Standard Operating Procedure.
Selectivity Screening of various chemokine receptors
The results were performed by Eurofins DiscoverX (Fremont, California, USA). The

[3] = tested on: orthotopic JHH-7 tumors; assay: Orthotopic JHH-7 HCC model; format: in vivo, nude mice; conditions: combination with sorafenib (40 mg/kg/d, oral); BPRCX807 15 mg/kg/d SC minipump
Description: In vivo hepatocellular carcinoma treatment studies […]
mouse PD-1 (200 µg/mouse; BioXcell, BE0146). The therapeutic efficacy and the changes in immune cells were analyzed after two weeks of treatment. The tumor volume was calculated with the following formula: volume = width × length × height/2. […]

[4] = target: CXCR4 (Homo sapiens, UniProt P61073); assay: Human CXCR4-binding assay ([125I]CXCL12 displacement, hCXCR4-transfected HEK293T membranes); design: expressed in transfected cells; host or cells: HEK293T
Description: concentrations of BPRCX807 in incubation buffer (50 mM HEPES-NaOH, pH 7.4, 100 mM NaCl, 5 mM MgCl2, 1 mM CaCl2, 0.5% BSA). Nonspecific binding was defined in the […]
The reaction mixtures were incubated for 1.5 h at 30 °C and then transferred to a 96 -well GF/B filter plate (Merck Millipore, Billerica, MA).
The reaction mixtures were terminated by manifold filtration and washed with ice-cold wash buffer (50 mM HEPES-NaOH, pH 7.4, 100 mM NaCl) four times. The radioactivity bound to the filter was measured with a TopCount instrument (PerkinElmer, Waltham, MA). The IC50 values were determined as the concentrations of the compounds required to inhibit 50% of the specific binding of [125I]CXCL12 and were calculated by nonlinear regression (GraphPad software, San Diego, CA).
Pharmacokinetics and toxicological studies
Male C57BL/6 mice, each weighing 23.4–25.4 g, were quarantined for 1 week before drug treatment. Compounds dissolved in 100% saline were individually given to mice (n = 3) subcutaneously (6 mg/kg; nonfasted mice). […] The plasma samples were analyzed by liquid chromatography– tandem mass spectrometry (LC–MS/MS), and the data were calculated by a standard noncompartmental method using the Kinetica software program (InnaPhase). […]

CXCR4, sequence (P61073 whole entry): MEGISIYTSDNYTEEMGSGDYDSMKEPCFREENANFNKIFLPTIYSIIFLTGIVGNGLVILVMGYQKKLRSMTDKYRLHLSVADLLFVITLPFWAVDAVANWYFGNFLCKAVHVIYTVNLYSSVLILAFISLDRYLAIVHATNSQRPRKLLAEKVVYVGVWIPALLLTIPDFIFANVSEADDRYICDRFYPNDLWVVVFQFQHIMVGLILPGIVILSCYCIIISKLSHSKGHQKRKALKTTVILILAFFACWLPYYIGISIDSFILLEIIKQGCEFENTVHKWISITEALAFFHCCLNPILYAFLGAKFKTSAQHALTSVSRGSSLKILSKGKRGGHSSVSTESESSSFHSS

SMILES: Cc1cc(NC2CCN(C(=O)CCNCC(=O)O)CC2)nc(NCc2nc(CCCNCCCNC3CCCCC3)co2)n1 [BPRCX807]
- CYP450 inhibition [1]: no inhibitory effects; also recorded: No inhibition
- Inhibition of 65 other nonprimary targets [2]: < 50%
- Tumor volume reduction [3]: ~77%
- IC50 [4]: 40.4 ± 8 nM

Reference: article PMC8020795 (Proceedings of the National Academy of Sciences of the …, 2021)
